Test results from publication PMC6312196 (ChemMedChem, 2018).
Substitutions are numbered along the chain they refer to. Read-outs that look alike come from different tables or passages of the source.

Experiments:
ABL1(T315I) [1] = biological target: T1, ABL1(T315I) (Homo sapiens, UniProt P00519, T315I); assay: Enzymatic inhibition of ABL1; type: biochemical; conditions: read-out: IC50 ABL1(T315I); enzyme, Figure 8B
T1 sequence (P00519 242-493 T315I limits assumed): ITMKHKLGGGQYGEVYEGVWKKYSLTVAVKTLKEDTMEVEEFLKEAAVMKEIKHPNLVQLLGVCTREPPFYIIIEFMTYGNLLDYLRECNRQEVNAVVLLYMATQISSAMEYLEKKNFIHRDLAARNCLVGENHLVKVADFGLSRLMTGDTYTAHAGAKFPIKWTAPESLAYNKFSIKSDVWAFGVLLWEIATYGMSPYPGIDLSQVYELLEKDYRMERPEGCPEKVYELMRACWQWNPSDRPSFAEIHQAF

K562 = assay: Cellular proliferation assay; type: cell-based; conditions: read-out: IC50 (mean ±SD) K562
ABL1 = biological target: T2, ABL1 (Homo sapiens, UniProt P00519); assay: Enzymatic inhibition of ABL1 wild type; type: biochemical; conditions: read-out: IC50 ABL1 wild type; enzyme, Figure 8A
T2 sequence (P00519 242-493 limits assumed): T1 sequence (P00519 242-493 T315I limits assumed) with I74T

KCL22-IR = assay: Cellular proliferation assay; type: cell-based; conditions: 72 h
ABL1(T315I) [2] = biological target: ABL1(T315I) (Homo sapiens, UniProt P00519+P11274, T315I); assay: Cellular ABL1 kinase phosphorylation assay in KCL22-IR; conditions: read-out: IC50 (mean ±SD) cellular ABL1 activity, KCL22-IR; 2 hours incubation, KCL22-T315I cells
KCL22 = assay: Cellular proliferation assay; type: cell-based; conditions: read-out: IC50 (mean ±SD) KCL22
[3] = cited from earlier work
[4] = read-out: IC50 (mean ±SD) KCL22-IR, anti-proliferation, T315I mutation

| IC50 (ABL1(T315I) [1]) | IC50 (K562; anti-proliferation, 72 h) | IC50 (ABL1) | IC50 (ABL1(T315I) [2]) | SMILES | IC50 (KCL22-IR; [4]) | IC50 (KCL22; anti-proliferation, 72 h) | IC50 (KCL22-IR; read-out: IC50 KCL22-IR (bound cells)) | IC50 (K562; Homo sapiens, K562, 72 h) | patients reporting serious and non-serious thrombotic events ([3]; cardiovascular, cerebrovascular, peripheral vascular events) | deaths linked to the use of the drug ([3]; study n=499) | IC50 (KCL22-IR; read-out: IC50 (mean ±SD) KCL22-IR) | IC50 (KCL22; Homo sapiens, KCL-22, 72 h) |
| --- | --- | --- | --- | --- | --- | --- | --- | --- | --- | --- | --- | --- |
| 4.7 nM | 1.75 ± 0.04 nM | < 5 nM | 18.9 ± 1.1 nM | Cc1ncc(C(=O)Nc2ccc(CN3CCN(C)CC3)c(C(F)(F)F)c2)cc1C#Cc1cnc(N)c2ncccc12 [Compound 15] | 2.67 ± 0.07 nM | 0.303 ± 0.002 nM |  |  |  |  |  |  |
|  |  |  |  | Cc1ccc(NC(=O)c2ccc(CN3CCN(C)CC3)cc2)cc1Nc1nccc(-c2cccnc2)n1 [Imatinib, reference compound] |  |  | > 1000 nM |  |  |  |  |  |
|  |  |  |  | Cc1ccc(C(=O)Nc2ccc(CN3CCN(C)CC3)c(C(F)(F)F)c2)cc1C#Cc1cnc2cccnn12 [Ponatinib, reference compound] |  |  |  | 0.6003 ± 0.0023 nM | 17.1% | Five | 0.66 ± 0.005 nM | 0.142 ± 0.003 nM |
| 32.8 nM | 0.688 ± 0.003 nM | < 5 nM | 36.4 ± 1.1 nM | CN1CCN(Cc2ccc(NC(=O)c3cncc(C#Cc4c(N)ncc5ccc(F)cc45)c3)cc2C(F)(F)F)CC1 [Compound 29] | 4.1 ± 0.03 nM | 0.444 ± 0.008 nM |  |  |  |  |  |  |
|  | 1.85 ± 0.03 nM |  |  | Cc1ccc(C(=O)Nc2ccc(CN3CCN(C)CC3)c(C(F)(F)F)c2)cc1C#Cc1cnc(N)c2ncccc12 [Compound 9] | 0.74 ± 0.004 nM | 0.18 ± 0.004 nM |  |  |  |  |  |  |

| SMILES | IC50 (ABL1(T315I) [1]) | IC50 (K562; anti-proliferation, 72 h) | IC50 (ABL1) | IC50 (ABL1(T315I) [2]) | IC50 (KCL22-IR; [4]) | IC50 (KCL22; anti-proliferation, 72 h) | IC50 (KCL22-IR; read-out: IC50 KCL22-IR (bound cells)) | IC50 (K562; Homo sapiens, K562, 72 h) | patients reporting serious and non-serious thrombotic events ([3]; cardiovascular, cerebrovascular, peripheral vascular events) | deaths linked to the use of the drug ([3]; study n=499) | IC50 (KCL22-IR; read-out: IC50 (mean ±SD) KCL22-IR) | IC50 (KCL22; Homo sapiens, KCL-22, 72 h) |
| --- | --- | --- | --- | --- | --- | --- | --- | --- | --- | --- | --- | --- |
| CN1CCN(Cc2ccc(NC(=O)c3cncc(C#Cc4cnc(N)c5ncccc45)c3)cc2C(F)(F)F)CC1 [Compound 16] | 40.7 nM | 0.765 ± 0.005 nM | < 5 nM | 26 ± 1.1 nM | 4.14 ± 0.11 nM | 1.02 ± 0.04 nM |  |  |  |  |  |  |
